Experimental data reported in US20240158446A1, “CYCLIC COMPOUND HAVING SELECTIVE INHIBITORY ACTION ON KRAS OVER HRAS AND NRAS” (CHUGAI SEIYAKU KABUSHIKI KAISHA, priority 2021, published 2024).
Like-named read-outs stand apart in the source and are kept apart here. *1 amine or outer side, *2 acyl side, *3 side chain or, on linkers, in order; H or OH if unused. Where a SMILES comes first, the peptide text is derived from it. Bridges are numbered along the chain shown (N, C = ends). [ ]: non-standard residue; d: D form. The star is where a group is joined. hPhe(3-Cl-4-CF3) = N[C@@H](CCc1ccc(C(F)(F)F)c(Cl)c1)C(=O)O; NPrPhe(4-CF3) = CCCN[C@@H](Cc1ccc(C(F)(F)F)cc1)C(=O)O; X30 = C=CCCN([C@@H](Cc1ccc(C)cc1)C(=O)[*:2])[*:1]; NMeGly(cPent) = CN[C@H](C(=O)O)C1CCCC1; cisHyp = O=C(O)[C@@H]1C[C@H](O)CN1; Hyp = O=C(O)[C@@H]1C[C@@H](O)CN1; NMeD = CN[C@@H](CC(=O)O)C(=O)O; NMeL = CN[C@@H](CC(C)C)C(=O)O; Morpholide = C1CN(*)CCO1; NMeA = CN[C@@H](C)C(=O)O; Ac5c = NC1(C(=O)O)CCCC1; Aze = O=C(O)[C@@H]1CCN1; NEtG = CCNCC(=O)O; Sar = CNCC(=O)O

Experiments:
[1] = biological target: GDP-bound KRAS wild-type protein (Homo sapiens, UniProt P01116); experiment: Binding to KRAS by surface plasmon resonance (SPR), Single Cycle Kinetics; settings: GDP-bound KRAS wild-type protein, read-out: KRAS KD
Sequence of GDP-bound KRAS wild-type protein (P01116 whole entry): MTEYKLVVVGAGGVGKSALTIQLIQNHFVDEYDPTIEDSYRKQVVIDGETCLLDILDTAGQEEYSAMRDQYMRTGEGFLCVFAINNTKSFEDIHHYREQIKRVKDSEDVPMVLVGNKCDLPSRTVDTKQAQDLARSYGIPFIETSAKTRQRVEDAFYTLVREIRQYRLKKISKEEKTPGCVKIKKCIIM

[2] = biological target: GDP-bound NRAS wild-type protein (Homo sapiens, UniProt P01111); experiment: Binding to NRAS by surface plasmon resonance (SPR), Single Cycle Kinetics
Sequence of GDP-bound NRAS wild-type protein (P01111 whole entry): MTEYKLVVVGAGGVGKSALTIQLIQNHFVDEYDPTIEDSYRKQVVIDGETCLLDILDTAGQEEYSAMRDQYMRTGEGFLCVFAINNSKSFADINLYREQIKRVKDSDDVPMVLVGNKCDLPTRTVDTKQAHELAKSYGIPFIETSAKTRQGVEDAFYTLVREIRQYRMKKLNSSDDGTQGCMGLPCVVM

[3] = biological target: GDP-bound HRAS wild-type protein (Homo sapiens, UniProt P01112); experiment: Binding to HRAS by surface plasmon resonance (SPR), Single Cycle Kinetics
Sequence of GDP-bound HRAS wild-type protein (P01112 whole entry): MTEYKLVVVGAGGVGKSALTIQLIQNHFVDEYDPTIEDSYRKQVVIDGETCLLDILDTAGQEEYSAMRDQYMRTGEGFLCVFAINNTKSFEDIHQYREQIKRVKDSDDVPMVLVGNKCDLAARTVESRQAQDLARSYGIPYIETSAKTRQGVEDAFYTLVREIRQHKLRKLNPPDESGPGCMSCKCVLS

[4] = SPR, GDP-bound NRAS wild-type protein vs GDP-bound KRAS wild-type protein
[5] = SPR, GDP-bound HRAS wild-type protein vs GDP-bound KRAS wild-type protein
[6] = SPR Single Cycle Kinetics, 1:1 binding model

Kd ([1]; SPR, Single Cycle Kinetics) [nM]	Kd [1, 6] [nM]	SMILES	NRAS/KRAS (ratio of KD value for NRAS to KD value for KRAS) [2, 4]	HRAS/KRAS (ratio of KD value for HRAS to KD value for KRAS) [3, 5]	NRAS/KRAS (ratio of KD value with respect to NRAS to KD value with respect to KRAS) [2, 4]	HRAS/KRAS (ratio of KD value with respect to HRAS to KD value with respect to KRAS) [3, 5]	NRAS/KRAS (ratio of KD value with respect to GDP-bound NRAS wild-type protein to KD value with respect to KRAS) ([2]; SPR KD ratio NRAS/KRAS, class symbols)	HRAS/KRAS (ratio of KD value with respect to GDP-bound HRAS wild-type protein to KD value with respect to KRAS) ([3]; SPR KD ratio HRAS/KRAS, class symbols)
0.047		CCO[C@@H]1C[C@H]2C(=O)NC3(CCC3)C(=O)N(C)[C@@H](C3CCCC3)C(=O)N(C)[C@H](C(=O)N(C)C)CC(=O)N(C)[C@@H](CCC(=O)N(C)C)C(=O)N[C@@H]([C@@H](C)CC)C(=O)N(C)CC(=O)N(C)[C@H]3C/C=C\CCN(C3=O)[C@@H](Cc3ccc(C(F)(F)F)cc3)C(=O)N(C)CC(=O)N[C@@H](CCc3cc(F)c(C(F)(F)F)c(F)c3)C(=O)N2C1 [PP1122]	A (a compound having 10 or more and less than 20 is denoted as A)	B (a compound having 3 or more and less than 10 is denoted as B)				
0.095		CCO[C@@H]1C[C@H]2C(=O)NC3(CCC3)C(=O)N(C)[C@@H]([C@@H](C)CC)C(=O)N(C)[C@H](C(=O)N(C)C)CC(=O)N(C)[C@@H](CC)C(=O)N[C@@H]([C@@H](C)CC)C(=O)N(C)CC(=O)N(C)[C@H]3C/C=C\CCN(C3=O)[C@@H](Cc3ccc(C(F)(F)F)cc3)C(=O)N(C)CC(=O)N[C@@H](CCc3cc(F)c(C(F)(F)F)c(F)c3)C(=O)N2C1 [PP1087, (2S,8S,12R,14S,20S,23S,27S,30S,36S,38Z)-8-[2-[3,5-difluoro-4-(trifluoromethyl)phenyl]ethyl]-12-ethoxy-27-ethyl-N,N,4,19,22,26,32,35-octamethyl-20,30-bis[(1S)-1-methylpropyl]-3,6,9,15,18,21,25,28,31,34,42-undecaoxo-2-[[4-(trifluoromethyl)phenyl]methyl]spiro[1,4,7,10,16,19,22,26,29,32,35-undecazatricyclo[34.5.1.0^10,14]dotetracont-38-ene-17,1′-cyclobutane]-23-carboxamide]	A (a compound having 10 or more and less than 20 is denoted as A)	A (a compound having 10 or more and less than 20 is denoted as A)				
	0.2	CCCN1C(=O)[C@@H]2CCN2C(=O)[C@H](C)N(C)C(=O)[C@H]([C@@H](C)CC)NC(=O)[C@H](CC(C)C)N(C)C(=O)C[C@@H](C(=O)N2CCOCC2)N(C)C(=O)[C@H](C2CCCC2)N(C)C(=O)C2(CCCC2)NC(=O)[C@@H]2C[C@H](OCC)CN2C(=O)[C@H](CCc2ccc(C(F)(F)F)c(Cl)c2)NC(=O)CN(C)C(=O)[C@@H]1Cc1ccc(C(F)(F)F)cc1 [PP0242] ([NMeL]I[NMeA][Aze][NPrPhe(4-CF3)][Sar][hPhe(3-Cl-4-CF3)][cisHyp](Et)[Ac5c][NMeGly(cPent)][NMeD]-Morpholide; lactam N-11)	C (A compound having a KD ratio of 0.1 or more and less than 3 is denoted as C)	C (A compound having a KD ratio of 0.1 or more and less than 3 is denoted as C)				
	0.063	CCCN1C(=O)[C@@H]2CCN2C(=O)[C@H](C)N(C)C(=O)[C@H]([C@@H](C)CC)NC(=O)[C@H](CC(C)C)N(C)C(=O)C[C@@H](C(=O)N2CCOCC2)N(C)C(=O)[C@H](C2CCCC2)N(C)C(=O)C2(CCCC2)NC(=O)[C@@H]2C[C@@H](OC)CN2C(=O)[C@H](CCc2ccc(C(F)(F)F)c(Cl)c2)NC(=O)CN(C)C(=O)[C@@H]1Cc1ccc(C(F)(F)F)cc1 [PP0283] ([NMeL]I[NMeA][Aze][NPrPhe(4-CF3)][Sar][hPhe(3-Cl-4-CF3)][Hyp](Me)[Ac5c][NMeGly(cPent)][NMeD]-Morpholide; lactam N-11)	C (A compound having a KD ratio of 0.1 or more and less than 3 is denoted as C)	C (A compound having a KD ratio of 0.1 or more and less than 3 is denoted as C)				
	0.16	C=CCCN1C(=O)CN(C)C(=O)CN(C)C(=O)[C@H]([C@@H](C)CC)NC(=O)[C@H](CC(C)C)N(C)C(=O)C[C@@H](C(=O)N2CCOCC2)N(C)C(=O)[C@H](C2CCCC2)N(C)C(=O)C2(CCCC2)NC(=O)[C@@H]2CCCN2C(=O)[C@H](CCc2ccc(C(F)(F)F)c(Cl)c2)NC(=O)CN(C)C(=O)[C@@H]1Cc1ccc(C)cc1 [PP0101] ([NMeL]I[Sar][Sar][X30][Sar][hPhe(3-Cl-4-CF3)]P[Ac5c][NMeGly(cPent)][NMeD]-Morpholide; lactam N-11)	B (a compound having 3 or more and less than 10 is denoted as B)	C (A compound having a KD ratio of 0.1 or more and less than 3 is denoted as C)				
	0.93	CC[C@H](C)[C@@H]1NC(=O)[C@H](C)N(C)C(=O)C[C@@H](C(=O)N2CCOCC2)N(C)C(=O)[C@H](C2CCCC2)N(C)C(=O)C2(CCC2)NC(=O)[C@@H]2CC(F)(F)CN2C(=O)[C@H](CCc2cc(F)c(C(F)(F)F)c(F)c2)NC(=O)CN(C)C(=O)[C@H](Cc2ccc(C(F)(F)F)cc2)N2CCCCC[C@@H](C2=O)N(C)C(=O)CN(C)C1=O [PP0471]			B (a compound having 3 or more and less than 10 is denoted as B)	B (a compound having 3 or more and less than 10 is denoted as B)		
	2.2	CCO[C@@H]1C[C@H]2C(=O)NC3(CC(C)(C)C3)C(=O)N(C)[C@@H](CC3CCC3)C(=O)N(C)[C@H](C(=O)N(C)C)CC(=O)N(C)[C@@H](COC)C(=O)N[C@@H]([C@@H](C)CC)C(=O)N(C3CC3)CC(=O)N(C)[C@H]3C/C=C\CCN(C3=O)[C@@H](Cc3ccc(C(F)(F)F)cc3)C(=O)N(C)CC(=O)N[C@@H](CCc3ccc(C(F)(F)F)c(OC)c3)C(=O)N2C1 [PP2771]					AA (a compound having 20 or more is denoted as AA)	A (a compound having 10 or more and less than 20 is denoted as A)
0.068		CCO[C@H]1CCN2C(=O)[C@H](CCc3cc(F)c(C(F)(F)F)c(F)c3)NC(=O)CN(C)C(=O)[C@H](Cc3ccc(C(F)(F)F)cc3)N3CCCC[C@@H](C3=O)N(C)C(=O)CN(C)C(=O)[C@H]([C@@H](C)CC)NC(=O)[C@H](CC(C)C)N(C)C(=O)C[C@@H](C(=O)N3CCOCC3)N(C)C(=O)[C@H](C3CCCC3)N(C)C(=O)C3(CCC3)NC(=O)[C@H]12 [PP1076]	B (a compound having 3 or more and less than 10 is denoted as B)	B (a compound having 3 or more and less than 10 is denoted as B)				
	0.15	CCCN1C(=O)CN(C)C(=O)CN(CC)C(=O)[C@H]([C@@H](C)CC)NC(=O)[C@H](CC(C)C)N(C)C(=O)C[C@@H](C(=O)N2CCOCC2)N(C)C(=O)[C@H](C2CCCC2)N(C)C(=O)C2(CCCC2)NC(=O)[C@@H]2C[C@@H](OC)CN2C(=O)[C@H](CCc2ccc(C(F)(F)F)c(Cl)c2)NC(=O)CN(C)C(=O)[C@@H]1Cc1ccc(C(F)(F)F)cc1 [PP0296] ([NMeL]I[NEtG][Sar][NPrPhe(4-CF3)][Sar][hPhe(3-Cl-4-CF3)][Hyp](Me)[Ac5c][NMeGly(cPent)][NMeD]-Morpholide; lactam N-11)	B (a compound having 3 or more and less than 10 is denoted as B)	C (A compound having a KD ratio of 0.1 or more and less than 3 is denoted as C)				
